Test results published in PubChem BioAssay AID1963833 (Molecular Pharmacology Branch, DTP, NCI, 2024).

Test system: 883617-216-R-J1-PDC complex spheroid viability
Assay: Anticancer human tumor 883617-216-R-J1-PDC patient-derived bladder carcinoma cell line growth inhibition [POLQ]
Settings: for IC50: curve of first compound; for viability, T/C: stronger effect = lower value; active = viability on the fitted dose curve at most 10% of control; inactive = the rest
How it was run: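 Patient-derived tumour cells were co-cultured with HUVEC and mesenchymal stem cells as multicellular spheroids at 37 °C. They were treated with POLQ inhibitors (novobiocin, ART-558, RP6685) alone or combined with other agents. Top concentrations were at or near clinical Cmax (otherwise 10 microM; SN-38 at 1 microM), decreasing in half-log steps.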

[1] = second compound 0.0316 µM, first compound 0.0316 µM
[2] = second compound 0.0316 µM, first compound 0.1 µM
[3] = second compound 0.0316 µM, first compound 0.316 µM
[4] = second compound 0.0316 µM, first compound 1 µM
[5] = second compound 0.0316 µM, first compound 3.16 µM
[6] = second compound 0.0316 µM, first compound 10 µM
[7] = second compound 0.1 µM, first compound 0.0316 µM
[8] = second compound 0.1 µM, first compound 0.1 µM
[9] = second compound 0.1 µM, first compound 0.316 µM
[10] = second compound 0.1 µM, first compound 1 µM
[11] = second compound 0.1 µM, first compound 3.16 µM
[12] = second compound 0.1 µM, first compound 10 µM
[13] = second compound 0.316 µM, first compound 0.0316 µM
[14] = second compound 0.316 µM, first compound 0.1 µM
[15] = second compound 0.316 µM, first compound 0.316 µM
[16] = second compound 0.316 µM, first compound 1 µM
[17] = second compound 0.316 µM, first compound 3.16 µM
[18] = second compound 0.316 µM, first compound 10 µM
[19] = second compound 1 µM, first compound 0.0316 µM
[20] = second compound 1 µM, first compound 0.1 µM
[21] = second compound 1 µM, first compound 0.316 µM
[22] = second compound 1 µM, first compound 1 µM
[23] = second compound 1 µM, first compound 3.16 µM
[24] = second compound 1 µM, first compound 10 µM
[25] = second compound 3.16 µM, first compound 0.0316 µM
[26] = second compound 3.16 µM, first compound 0.1 µM
[27] = second compound 3.16 µM, first compound 0.316 µM
[28] = second compound 3.16 µM, first compound 1 µM
[29] = second compound 3.16 µM, first compound 3.16 µM
[30] = second compound 3.16 µM, first compound 10 µM
[31] = second compound 10 µM, first compound 0.0316 µM
[32] = second compound 10 µM, first compound 0.1 µM
[33] = second compound 10 µM, first compound 0.316 µM
[34] = second compound 10 µM, first compound 1 µM
[35] = second compound 10 µM, first compound 3.16 µM
[36] = second compound 10 µM, first compound 10 µM
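Also: spheroids exposed to compounds for seven days before readout.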
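For viability, T/C in this document: 100% = DMSO vehicle control viability.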

CC(C)n1c(=O)n(C)c2cnc3cc(F)c(-c4ccc(OCCCN5CCCCC5)nc4)cc3c21 + COC1C(OC(N)=O)C(O)C(Oc2ccc3c(O)c(NC(=O)c4ccc(O)c(CC=C(C)C)c4)c(=O)oc3c2C)OC1(C)C
inactive: viability, T/C [1] 92.2% | viability, T/C [2] 94.5% | viability, T/C [3] 97.4% | viability, T/C [4] 93.1% | viability, T/C [5] 88.2% | viability, T/C [6] 65.1% | viability, T/C [7] 99% | viability, T/C [8] 103% | viability, T/C [9] 93.9% | viability, T/C [10] 104% | viability, T/C [11] 91.8% | viability, T/C [12] 82.6% | viability, T/C [13] 97% | viability, T/C [14] 92.2% | viability, T/C [15] 97.3% | viability, T/C [16] 101% | viability, T/C [17] 97% | viability, T/C [18] 76.3% | viability, T/C [19] 102% | viability, T/C [20] 103% | viability, T/C [21] 108% | viability, T/C [22] 91.2% | viability, T/C [23] 94.1% | viability, T/C [24] 84.5% | viability, T/C [25] 109% | viability, T/C [26] 108% | viability, T/C [27] 110% | viability, T/C [28] 95.7% | viability, T/C [29] 95.9% | viability, T/C [30] 81% | viability, T/C [31] 106% | viability, T/C [32] 97.3% | viability, T/C [33] 102% | viability, T/C [34] 98.3% | viability, T/C [35] 78.9% | viability, T/C [36] 72.8%
> 10 µM: IC50 (second compound 0.0316 µM) | IC50 (second compound 0.1 µM) | IC50 (second compound 0.316 µM) | IC50 (second compound 1 µM) | IC50 (second compound 3.16 µM) | IC50 (second compound 10 µM)

CNCc1ccc(-c2[nH]c3cc(F)cc4c3c2CCNC4=O)cc1 + COC1C(OC(N)=O)C(O)C(Oc2ccc3c(O)c(NC(=O)c4ccc(O)c(CC=C(C)C)c4)c(=O)oc3c2C)OC1(C)C
> 10 µM: IC50 (second compound 0.0316 µM) | IC50 (second compound 0.1 µM) | IC50 (second compound 0.316 µM) | IC50 (second compound 1 µM) | IC50 (second compound 3.16 µM) | IC50 (second compound 10 µM)
inactive: viability, T/C [1] 109% | viability, T/C [2] 104% | viability, T/C [3] 101% | viability, T/C [4] 97.9% | viability, T/C [5] 95.3% | viability, T/C [6] 80.7% | viability, T/C [7] 107% | viability, T/C [8] 97.3% | viability, T/C [9] 107% | viability, T/C [10] 101% | viability, T/C [11] 104% | viability, T/C [12] 98.6% | viability, T/C [13] 116% | viability, T/C [14] 98.9% | viability, T/C [15] 104% | viability, T/C [16] 106% | viability, T/C [17] 103% | viability, T/C [18] 94% | viability, T/C [19] 104% | viability, T/C [20] 104% | viability, T/C [21] 103% | viability, T/C [22] 90.4% | viability, T/C [23] 98% | viability, T/C [24] 87.9% | viability, T/C [25] 103% | viability, T/C [26] 92.8% | viability, T/C [27] 102% | viability, T/C [28] 87.2% | viability, T/C [29] 107% | viability, T/C [30] 92.9% | viability, T/C [31] 110% | viability, T/C [32] 97.2% | viability, T/C [33] 95.4% | viability, T/C [34] 91.9% | viability, T/C [35] 94.7% | viability, T/C [36] 95.6%

C=CC(=O)N1CCN(c2nc(=O)n(-c3c(C)ccnc3C(C)C)c3nc(-c4c(O)cccc4F)c(F)cc23)C(C)C1 (stereo not given) + COC1C(OC(N)=O)C(O)C(Oc2ccc3c(O)c(NC(=O)c4ccc(O)c(CC=C(C)C)c4)c(=O)oc3c2C)OC1(C)C
> 10 µM: IC50 (second compound 0.0316 µM) | IC50 (second compound 0.1 µM) | IC50 (second compound 0.316 µM) | IC50 (second compound 1 µM) | IC50 (second compound 3.16 µM) | IC50 (second compound 10 µM)
inactive: viability, T/C [1] 79.2% | viability, T/C [2] 77.5% | viability, T/C [3] 70.8% | viability, T/C [4] 98.3% | viability, T/C [5] 81.7% | viability, T/C [6] 87.6% | viability, T/C [7] 72.5% | viability, T/C [8] 68.2% | viability, T/C [9] 67.3% | viability, T/C [10] 81.8% | viability, T/C [11] 102% | viability, T/C [12] 80.5% | viability, T/C [13] 70.2% | viability, T/C [14] 78.7% | viability, T/C [15] 68.5% | viability, T/C [16] 73.7% | viability, T/C [17] 85.5% | viability, T/C [18] 75.9% | viability, T/C [19] 81.8% | viability, T/C [20] 65.9% | viability, T/C [21] 73.2% | viability, T/C [22] 78.2% | viability, T/C [23] 89.9% | viability, T/C [24] 76.5% | viability, T/C [25] 78.3% | viability, T/C [26] 62.4% | viability, T/C [27] 79.3% | viability, T/C [28] 69.5% | viability, T/C [29] 79% | viability, T/C [30] 76.8% | viability, T/C [31] 68% | viability, T/C [32] 60.6% | viability, T/C [33] 76.5% | viability, T/C [34] 85.5% | viability, T/C [35] 84.2% | viability, T/C [36] 91.4%

C#Cc1c(F)ccc2cc(O)cc(-c3ncc4c(N5CC6CCC(C5)N6)nc(OCC56CCCN5CC(F)C6)nc4c3F)c12 (stereo not given) + COC1C(OC(N)=O)C(O)C(Oc2ccc3c(O)c(NC(=O)c4ccc(O)c(CC=C(C)C)c4)c(=O)oc3c2C)OC1(C)C
inactive: viability, T/C [1] 90.3% | viability, T/C [2] 108% | viability, T/C [3] 96.2% | viability, T/C [4] 97.9% | viability, T/C [5] 81.1% | viability, T/C [6] 75% | viability, T/C [7] 121% | viability, T/C [8] 100% | viability, T/C [9] 90.4% | viability, T/C [10] 83.4% | viability, T/C [11] 87.3% | viability, T/C [12] 78.2% | viability, T/C [13] 96.1% | viability, T/C [14] 114% | viability, T/C [15] 90% | viability, T/C [16] 91% | viability, T/C [17] 70.3% | viability, T/C [18] 67% | viability, T/C [19] 99.7% | viability, T/C [20] 98.8% | viability, T/C [21] 83.8% | viability, T/C [22] 91.4% | viability, T/C [23] 81.9% | viability, T/C [24] 86.3% | viability, T/C [25] 98.6% | viability, T/C [26] 93.6% | viability, T/C [27] 95.5% | viability, T/C [28] 94.4% | viability, T/C [29] 84.4% | viability, T/C [30] 76.3% | viability, T/C [31] 85.8% | viability, T/C [32] 101% | viability, T/C [33] 101% | viability, T/C [34] 85.7% | viability, T/C [35] 91.8% | viability, T/C [36] 73.6%
> 10 µM: IC50 (second compound 0.0316 µM) | IC50 (second compound 0.1 µM) | IC50 (second compound 0.316 µM) | IC50 (second compound 1 µM) | IC50 (second compound 3.16 µM) | IC50 (second compound 10 µM)

COc1cc(C2c3cc4c(cc3C(OC3OC5COC(C)OC5C(O)C3O)C3COC(=O)C23)OCO4)cc(OC)c1O (stereo not given) + Nc1ccc(C#CCN(C(=O)Cc2ncc(C(F)(F)F)cc2C(F)(F)F)c2ccc(F)cc2)nn1
> 10 µM: IC50 (second compound 0.0316 µM) | IC50 (second compound 0.1 µM) | IC50 (second compound 0.316 µM) | IC50 (second compound 1 µM) | IC50 (second compound 3.16 µM) | IC50 (second compound 10 µM)
inactive: viability, T/C [1] 103% | viability, T/C [2] 99.1% | viability, T/C [3] 65.7% | viability, T/C [4] 82.1% | viability, T/C [5] 67.5% | viability, T/C [6] 60% | viability, T/C [7] 112% | viability, T/C [8] 98.8% | viability, T/C [9] 81% | viability, T/C [10] 75.9% | viability, T/C [11] 69.4% | viability, T/C [12] 59.6% | viability, T/C [13] 104% | viability, T/C [14] 105% | viability, T/C [15] 92.3% | viability, T/C [16] 64.4% | viability, T/C [17] 69.7% | viability, T/C [18] 54% | viability, T/C [19] 104% | viability, T/C [20] 102% | viability, T/C [21] 83.2% | viability, T/C [22] 80% | viability, T/C [23] 87.8% | viability, T/C [24] 62.1% | viability, T/C [25] 91.8% | viability, T/C [26] 117% | viability, T/C [27] 81.8% | viability, T/C [28] 73.2% | viability, T/C [29] 69.1% | viability, T/C [30] 58.6% | viability, T/C [31] 101% | viability, T/C [32] 107% | viability, T/C [33] 92.3% | viability, T/C [34] 75% | viability, T/C [35] 80.7% | viability, T/C [36] 70.5%
